Assays:
[1] = Stability in Simulated Gastric Fluid (SGF); type: in vitro ADME; set-up: key: % parent compound remaining relative to 0-minute sample
How it was run: (§1)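 Percent of parent remaining relative to time zero was measured by LC-MS/MS over 0–60 min at 37 °C, 150 rpm. Test compound was 2 μg/mL final in pepsin-containing SGF, pH 1.2, or pancreatin-containing SIF, pH 6.8. Degradation half-life was derived from the log-linear decay where enough points allowed.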

[2] = Caco-2 Permeability Assay; type: in vitro ADME, human; conditions: human
How it was run: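 Bidirectional transport at 37 °C for 90 min, 10 μM donor concentration, with or without Pgp inhibitor, across 21-day Caco-2 monolayers with TEER >600 […] in HEPES-buffered HBSS, pH 7.4. LC-MS/MS of donor and receiver samples gives Papp, B→A/A→B efflux ratio and mass recovery.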

[3] = Stability in Simulated Intestinal Fluid (SIF); type: in vitro ADME; set-up: key: % parent compound remaining relative to 0-minute sample
How it was run: as §1

Plasma Stability = type: in vitro ADME, human
How it was run: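 Parent compound quantified by LC-MS/MS after acetonitrile precipitation, reported as percent of control remaining (triplicate). Incubation: 1 hour, 37° C, fresh human plasma, compound at 1 μM.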

[4] = % remaining at 1 h in simulated gastric fluid, the 17th table
[5] = Caco-2, pH 7.4, Caco-2 monolayer, the 17th table
[6] = % remaining at 1 h in simulated intestinal fluid, the 17th table
[7] = % remaining at 1 h in human plasma, the 17th table
[8] = % remaining at 1 h, SGF with pepsin pH 1.2, 2 μg/mL, 37° C.
[9] = Caco-2, pH 7.4, donor 10 μM, 90 minutes, 37° C., direction not given
[10] = % remaining at 1 h, SIF with pancreatin pH 6.8, 2 μg/mL, 37° C.
[11] = % remaining at 1 h, human plasma, 1 μM, 37° C.
[12] = Caco-2, pH 7.4, Caco-2 monolayer
[13] = Caco-2, pH 7.4, no unit printed at the place (tables the 9th table and the 10th table have no head)
[14] = % remaining at 1 h in simulated gastric fluid, the 15th table
[15] = Caco-2, pH 7.4, Caco-2 monolayer, the 15th table
[16] = % remaining at 1 h in simulated intestinal fluid, the 15th table
[17] = % remaining at 1 h in human plasma, the 15th table

With `CC(C)NC(=O)n1ccc2c1c(=O)[nH]c(=S)n2CCOC(C)C` [Example 223] the SGF [1, 4] was 87% remaining, the Papp at 90 min, 10 µM [2, 5] was 37 ×10⁻⁶ cm/s and the SIF [3, 6] was 70% remaining. The “human Plasma stability” value (Plasma Stability; [7]) was 99% remaining.

Molecule `CC(C)OCCn1c(=S)[nH]c(=O)c2c1ccn2COC(=O)OC(C)C` [Example 90, {4-oxo-1-[2-(propan-2-yloxy)ethyl]-2-sulfanylidene-1H,2H,3H,4H,5H-pyrrolo[3,2-d]pyrimidin-5-yl}methyl propan-2-yl carbonate] has an SGF [1, 8] of 77% remaining, a Papp at 90 min, 10 µM [2, 9] of 18 ×10⁻⁶ cm/s and an SIF [3, 10] of 56% remaining. For the same molecule, the “human Plasma stability” value (Plasma Stability; [11]) was 0% remaining.

For `CC(C)OCCn1c(SCOC(=O)[C@@H](NC(=O)OC(C)(C)C)C(C)C)nc(=O)c2c1ccn2COC(=O)[C@@H](NC(=O)OC(C)(C)C)C(C)C` [Example 295, {[5-({[(2S)-2-{[(tert-butoxy)carbonyl]amino}-3-methylbutanoyl]oxy}methyl)-4-oxo-1-[2-(propan-2-yloxy)ethyl]-1H,4H,5H-pyrrolo[3,2-d]pyrimidin-2-yl]sulfanyl}methyl (2S)-2-{[(tert-butoxy)carbonyl]amino}-3-methylbutanoate], the SGF ([1]; % remaining @ 1 h) was 58% @ 1 h, the Papp at 90 min, 10 µM ([2]; Caco-2, pH 7.4) was 17 ×10⁻⁶ cm/s and the SIF ([3]; % remaining @ 1 h) was 0% @ 1 h. The “human Plasma stability” value (Plasma Stability; % remaining @ 1 h) was 81% @ 1 h.

`CC(C)C[C@@H](NC(=O)OC(C)(C)C)C(=O)OCn1c(=O)c2c(ccn2COC(=O)[C@@H](CC(C)C)NC(=O)OC(C)(C)C)n(CCOC(C)C)c1=S` [Example 319, [3-({[(2R)-2-{[(tert-butoxy)carbonyl]amino}-4-methylpentanoyl]oxy}methyl)-4-oxo-1-[2-(propan-2-yloxy)ethyl]-2-sulfanylidene-1H,2H,3H,4H,5H-pyrrolo[3,2-d]pyrimidin-5-yl]methyl (2R)-2-{[(tert-butoxy)carbonyl]amino}-4-methylpentanoate] gave an SGF ([1]; % remaining @ 1 h) of 34%@ 1 h, a Papp at 90 min, 10 µM ([2]; Caco-2, pH 7.4) of 10.5 ×10⁻⁶ cm/s and an SIF ([3]; % remaining @ 1 h) of 0%@ 1 h. For the same molecule, the “human Plasma stability” value (Plasma Stability; % remaining @ 1 h) was 42%@ 1 h.

For `Cc1ccccc1N(C)C(=O)OCn1c(=O)c2c(ccn2COC(=O)N(C)c2ccccc2C)n(CCOC(C)C)c1=S` [Example 244], the SGF ([1]; simulated gastric fluid, at 1 h) was 98% remaining, the Papp at 90 min, 10 µM [2, 12] was 7.47 ×10⁻⁶ cm/s and the SIF ([3]; simulated intestinal fluid, at 1 h) was 99% remaining. For the same molecule, the “human Plasma stability” value (Plasma Stability; human plasma, at 1 h) was 52% remaining.

In the case of `CC(C)OCCn1c(=S)[nH]c(=O)c2c1ccn2COC(=O)CCCCCCCCCCC(=O)O` [Example 261], the SGF ([1]; simulated gastric fluid, after 1 h) was 99% remaining, the Papp at 90 min, 10 µM [2, 12] was 11.7 ×10⁻⁶ cm/s and the SIF ([3]; simulated intestinal fluid, after 1 h) was 2% remaining. For the same molecule, the “human Plasma stability” value (Plasma Stability; human plasma, after 1 h) was 94% remaining.

With `CC(C)OCCn1c(=S)[nH]c(=O)c2c1ccn2COC(=O)CCCOC(=O)[C@H](N)Cc1ccccc1.O=C(O)C(F)(F)F` [Example 362, trifluoroacetic acid {4-oxo-1-[2-(propan-2-yloxy)ethyl]-2-sulfanylidene-1H,2H,3H,4H,5H-pyrrolo[3,2-d]pyrimidin-5-yl}methyl 4-{[(2R)-2-amino-3-phenylpropanoyl]oxy}butanoate] the SGF ([1]; simulated gastric fluid, remaining at 1 h) was 90% remaining, the Papp at 90 min, 10 µM [2, 12] was 5.12 ×10⁻⁶ cm/s and the SIF ([3]; simulated intestinal fluid, remaining at 1 h) was 2% remaining. For the same molecule, the “human Plasma stability” value (Plasma Stability; human plasma, remaining at 1 h) was 3% remaining.

For `CC(C)OCCn1c(=S)[nH]c(=O)c2c1ccn2COC(=O)CCNC(=O)OC(C)(C)C` [Example 6, {4-Oxo-1-[2-(propan-2-yloxy)ethyl]-2-sulfanylidene-1H,2H,3H,4H,5H-pyrrolo[3,2-d]pyrimidin-5-yl}methyl 3-{[(tert-butoxy)carbonyl]amino}propanoate], the SGF [1, 8] was 82%, the Papp at 90 min, 10 µM [2, 9] was 17.9 ×10⁻⁶ cm/s and the SIF [3, 10] was 67%. The “human Plasma stability” value (Plasma Stability; [11]) was 59%.

With `CC(C)OCCn1c(=S)[nH]c(=O)c2c1ccn2C(C)OC(=O)N(CC(F)(F)F)CC(F)(F)F` (stereo not shown) [Example 112, 1-{4-oxo-1-[2-(propan-2-yloxy)ethyl]-2-sulfanylidene-1H,2H,3H,4H,5H-pyrrolo[3,2-d]pyrimidin-5-yl}ethyl N,N-bis(2,2,2-trifluoroethyl)carbamate] the SGF [1, 8] was 100%, the Papp at 90 min, 10 µM [2, 9] was 21.1 ×10⁻⁶ cm/s and the SIF [3, 10] was 100%. The “human Plasma stability” value (Plasma Stability; [11]) was 99%.

In the case of `CCCCCOC(=O)OCn1ccc2c1c(=O)nc(S)n2CCOC(C)C` [Example 216], the SGF [1, 4] was 91% remaining, the Papp at 90 min, 10 µM [2, 5] was 4.59 ×10⁻⁶ cm/s and the SIF [3, 6] was 1% remaining. The “human Plasma stability” value (Plasma Stability; [7]) was 1% remaining.

Molecule `CC(C)CN(C)C(=O)OCSc1nc(=O)c2c(ccn2COC(=O)N(C)CC(C)C)n1CCOC(C)C` [Example 161] has an SGF ([1]; % @ 1 h (remaining) in simulated gastric fluid) of 80% @ 1 h, a Papp at 90 min, 10 µM [2, 12] of 31.3 ×10⁻⁶ cm/s and an SIF ([3]; % @ 1 h (remaining) in simulated intestinal fluid) of 80% @ 1 h. The “human Plasma stability” value (Plasma Stability; % @ 1 h (remaining) in human plasma) was 99% @ 1 h.

Molecule `COCCOCCOC(=O)OCSc1nc(=O)c2c(ccn2COC(=O)OCCOCCOC)n1CCOC(C)C` [Example 104, (2-{[{{[2-(2-methoxyethoxy)ethoxy]carbonyl}oxy)methyl]sulfanyl}-4-oxo-1-[2-(propan-2-yloxy)ethyl]-1H,4H,5H-pyrrolo[3,2-d]pyrimidin-5-yl)methyl 2-(2-methoxyethoxy)ethyl carbonate] has an SGF [1, 8] of 96%, a Papp at 90 min, 10 µM [2, 13] of 0.276 ×10⁻⁶ cm/s and an SIF [3, 10] of 70%. For the same molecule, the “human Plasma stability” value (Plasma Stability; [11]) was 18%.

For `CC(C)OCCn1c(=S)n(COC(=O)[C@H](C)N)c(=O)c2c1ccn2COC(=O)[C@H](C)N.O=C(O)C(F)(F)F.O=C(O)C(F)(F)F` [Example 289, bis(trifluoroacetic acid) [3-({[(2S)-2-aminopropanoyl]oxy}methyl)-4-oxo-1-[2-(propan-2-yloxy)ethyl]-2-sulfanylidene-1H,2H,3H,4H,5H-pyrrolo[3,2-d]pyrimidin-5-yl]methyl (2S)-2-aminopropanoate], the SGF ([1]; % remaining @ 1 h) was 100% @ 1 h, the Papp at 90 min, 10 µM ([2]; Caco-2, pH 7.4) was < 0.366 ×10⁻⁶ cm/s and the SIF ([3]; % remaining @ 1 h) was 97% @ 1 h. The “human Plasma stability” value (Plasma Stability; % remaining @ 1 h) was 39% @ 1 h.

For `CC(C)OCCn1c(=S)n(COC(=O)CCCCOC(=O)CN)c(=O)c2c1ccn2COC(=O)CCCCOC(=O)CN.O=C(O)C(F)(F)F.O=C(O)C(F)(F)F` [Example 332, bis (trifluoroacetic acid) {3-[{{5-[(2-aminoacetyl)oxy]pentanoyl}oxy)meth-yl]-4-oxo-1-[2-(propan-2-yloxy)ethyl]-2-sulfanylidene-1H,2H,3H,4H,5H-pyrrolo[3,2-d]pyrimidin-5-yl}methyl 5-[(2-aminoacetyl)oxy]pentanoate], the SGF ([1]; % remaining @ 1 h) was 91% @ 1 h, the Papp at 90 min, 10 µM ([2]; Caco-2, pH 7.4) was < 0.073 ×10⁻⁶ cm/s and the SIF ([3]; % remaining @ 1 h) was 4% @ 1 h. The “human Plasma stability” value (Plasma Stability; % remaining @ 1 h) was 4% @ 1 h.

In the case of `CC(C)OCCn1c(=S)n(COC(=O)[C@@H](C)N)c(=O)c2c1ccn2COC(=O)[C@@H](C)N.O=C(O)C(F)(F)F.O=C(O)C(F)(F)F` [Example 293, bis(trifluoroacetic acid) [3-({[(2R)-2-aminopropanoyl]oxy}methyl)-4-oxo-1-[2-(propan-2-yloxy)ethyl]-2-sulfanylidene-1H,2H,3H,4H,5H-pyrrolo[3,2-d]pyrimidin-5-yl]methyl (2R)-2-aminopropanoate], the SGF ([1]; % remaining @ 1 h) was 100% @ 1 h, the Papp at 90 min, 10 µM ([2]; Caco-2, pH 7.4) was < 1.06 ×10⁻⁶ cm/s and the SIF ([3]; % remaining @ 1 h) was 29% @ 1 h. For the same molecule, the “human Plasma stability” value (Plasma Stability; % remaining @ 1 h) was 25% @ 1 h.

Molecule `COC(=O)OCSc1nc(=O)c2[nH]ccc2n1CCOC(C)C` [Example 200] has an SGF [1, 14] of 100% remaining, a Papp at 90 min, 10 µM [2, 15] of 9.76 ×10⁻⁶ cm/s and an SIF [3, 16] of 75% remaining. The “human Plasma stability” value (Plasma Stability; [17]) was 2% remaining.

Work on `CC(C)OCCn1c(=S)[nH]c(=O)c2c1ccn2COC(=O)CCCCNC(=O)CNC(=O)OC(C)(C)C` [Example 13] yielded an SGF ([1]; % remaining at 1 h in simulated gastric fluid) of 96% remaining, a Papp at 90 min, 10 µM [2, 12] of 1.88 ×10⁻⁶ cm/s and an SIF ([3]; % remaining at 1 h in simulated intestinal fluid) of 94% remaining. The “human Plasma stability” value (Plasma Stability; % remaining at 1 h in human plasma) was 1% remaining.

`CC(C)OCCn1c(=S)[nH]c(=O)c2c1ccn2COC(=O)N[C@H](C(=O)OC(C)(C)C)C(C)C` [Example 107, tert-butyl (2S)-3-methyl-2-{[{{4-oxo-1-[2-(propan-2-yloxy)ethyl]-2-sulfanylidene-1H,2H,3H,4H,5H-pyrrolo[3,2-d]pyrimidin-5-yl}methoxy)carbonyl]amino}butanoate] showed an SGF [1, 8] of 93%, a Papp at 90 min, 10 µM [2, 13] of 11.5 ×10⁻⁶ cm/s and an SIF [3, 10] of 92%. For the same molecule, the “human Plasma stability” value (Plasma Stability; [11]) was 86%.

In the case of `CC(C)OCCn1c(SCOC(=O)OC(C)C)nc(=O)c2[nH]ccc21` [Example 203], the SGF [1, 14] was 99% remaining, the Papp at 90 min, 10 µM [2, 15] was 13.4 ×10⁻⁶ cm/s and the SIF [3, 16] was 63% remaining. The “human Plasma stability” value (Plasma Stability; [17]) was 1% remaining.
